Data from the supplement of paper PMC10307832.

Key:
Experiment in all cases: relative viability (nuclei count vs DMSO), 5 days (fraction); higher = more cells survive
[1] = compound: C[C@@H](N)c1ccc(C(=O)Nc2ccnc3[nH]ccc23)cc1 + CC(C)C[C@H](NC(=O)[C@H](Cc1ccccc1)NC(=O)c1cnccn1)B(O)O [Bortezomib] (partner 0.002 µM)
Procedure, shortened: (§1)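 Relative viability equals treated-well nuclei counts divided by vehicle-well nuclei counts. Counts came from 4× images of lung cancer cell lines grown in 1536-well plates for 5 days after pin-tool dosing on the day after seeding. Dosing used one drug alone or a fixed anchor-drug dose plus five library-drug doses (not always all listed) in √10 steps, and values are medians of duplicate plates.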

[2] = compound: C[C@@H](N)c1ccc(C(=O)Nc2ccnc3[nH]ccc23)cc1 + Cc1cc(Nc2cc(N3CCN(C)CC3)nc(Sc3ccc(NC(=O)C4CC4)cc3)n2)n[nH]1 [Tozasertib] (partner 0.1 µM)
Procedure, shortened: as §1

Tanzisertib + Navitoclax = compound: O[C@H]1CC[C@H](Nc2ncc3nc(Nc4c(F)cc(F)cc4F)n([C@H]4CCOC4)c3n2)CC1 [Tanzisertib] + CC1(C)CCC(c2ccc(Cl)cc2)=C(CN2CCN(c3ccc(C(=O)NS(=O)(=O)c4ccc(N[C@H](CCN5CCOCC5)CSc5ccccc5)c(S(=O)(=O)C(F)(F)F)c4)cc3)CC2)C1 [Navitoclax] (partner 0.5 µM)
Procedure, shortened: as §1

Tanzisertib + Pemetrexed = compound: O[C@H]1CC[C@H](Nc2ncc3nc(Nc4c(F)cc(F)cc4F)n([C@H]4CCOC4)c3n2)CC1 [Tanzisertib] + Nc1nc2[nH]cc(CCc3ccc(C(=O)N[C@@H](CCC(=O)O)C(=O)O)cc3)c2c(=O)[nH]1 [Pemetrexed] (partner 0.2 µM)
Procedure, shortened: as §1

With SK-LU-1 the relative viability ([1]; first compound 0.04 µM) was 0.886, the relative viability ([1]; first compound 0.1265 µM) was 1.54 and the relative viability ([1]; first compound 0.4 µM) was 1.01. For the same cell line, the relative viability ([1]; first compound 1.265 µM) was 0.753, the relative viability ([1]; first compound 4 µM) was 0.743 and the relative viability ([2]; first compound 0.04 µM) was 0.34. The relative viability ([2]; first compound 0.1265 µM) was 0.333, the relative viability ([2]; first compound 0.4 µM) was 0.372 and the relative viability ([2]; first compound 1.265 µM) was 0.289. The relative viability ([2]; first compound 4 µM) was 0.311, the relative viability (Tanzisertib + Navitoclax; first compound 0.08 µM) was 0.834 and the relative viability (Tanzisertib + Navitoclax; first compound 0.253 µM) was 0.748. It also gave a relative viability (Tanzisertib + Navitoclax; first compound 0.8 µM) of 0.759, a relative viability (Tanzisertib + Navitoclax; first compound 2.53 µM) of 1.25 and a relative viability (Tanzisertib + Navitoclax; first compound 8 µM) of 0.8. For the same cell line, the relative viability (Tanzisertib + Pemetrexed; first compound 0.08 µM) was 1.07, the relative viability (Tanzisertib + Pemetrexed; first compound 0.253 µM) was 0.949 and the relative viability (Tanzisertib + Pemetrexed; first compound 0.8 µM) was 1.02. The relative viability (Tanzisertib + Pemetrexed; first compound 2.53 µM) was 0.969 and the relative viability (Tanzisertib + Pemetrexed; first compound 8 µM) was 0.979.
Cell Line NCI-H1975 has a relative viability ([1]; first compound 0.04 µM) of 0.314, a relative viability ([1]; first compound 0.1265 µM) of 0.365 and a relative viability ([1]; first compound 0.4 µM) of 0.37. The relative viability ([1]; first compound 1.265 µM) was 0.308, the relative viability ([1]; first compound 4 µM) was 0.244 and the relative viability ([2]; first compound 0.04 µM) was 0.8. For the same cell line, the relative viability ([2]; first compound 0.1265 µM) was 0.712, the relative viability ([2]; first compound 0.4 µM) was 0.729 and the relative viability ([2]; first compound 1.265 µM) was 0.696. It also gave a relative viability ([2]; first compound 4 µM) of 0.642, a relative viability (Tanzisertib + Navitoclax; first compound 0.08 µM) of 1.28 and a relative viability (Tanzisertib + Navitoclax; first compound 0.253 µM) of 1.09. It also gave a relative viability (Tanzisertib + Navitoclax; first compound 0.8 µM) of 1.21, a relative viability (Tanzisertib + Navitoclax; first compound 2.53 µM) of 1.29 and a relative viability (Tanzisertib + Navitoclax; first compound 8 µM) of 1.03. The relative viability (Tanzisertib + Pemetrexed; first compound 0.08 µM) was 0.304, the relative viability (Tanzisertib + Pemetrexed; first compound 0.253 µM) was 0.294 and the relative viability (Tanzisertib + Pemetrexed; first compound 0.8 µM) was 0.267. It also gave a relative viability (Tanzisertib + Pemetrexed; first compound 2.53 µM) of 0.317 and a relative viability (Tanzisertib + Pemetrexed; first compound 8 µM) of 0.254.
RERF-LC-KJ was tested, and the relative viability ([1]; first compound 0.04 µM) was 1.19, the relative viability ([1]; first compound 0.1265 µM) was 1.21 and the relative viability ([1]; first compound 0.4 µM) was 1.2. It also gave a relative viability ([1]; first compound 1.265 µM) of 1.24, a relative viability ([1]; first compound 4 µM) of 1.12 and a relative viability ([2]; first compound 0.04 µM) of 0.643. The relative viability ([2]; first compound 0.1265 µM) was 0.453, the relative viability ([2]; first compound 0.4 µM) was 0.525 and the relative viability ([2]; first compound 1.265 µM) was 0.513. It also gave a relative viability ([2]; first compound 4 µM) of 0.422, a relative viability (Tanzisertib + Navitoclax; first compound 0.08 µM) of 0.918 and a relative viability (Tanzisertib + Navitoclax; first compound 0.253 µM) of 0.789. For the same cell line, the relative viability (Tanzisertib + Navitoclax; first compound 0.8 µM) was 0.791, the relative viability (Tanzisertib + Navitoclax; first compound 2.53 µM) was 0.818 and the relative viability (Tanzisertib + Navitoclax; first compound 8 µM) was 0.882. For the same cell line, the relative viability (Tanzisertib + Pemetrexed; first compound 0.08 µM) was 0.429, the relative viability (Tanzisertib + Pemetrexed; first compound 0.253 µM) was 0.468 and the relative viability (Tanzisertib + Pemetrexed; first compound 0.8 µM) was 0.486. The relative viability (Tanzisertib + Pemetrexed; first compound 2.53 µM) was 0.423 and the relative viability (Tanzisertib + Pemetrexed; first compound 8 µM) was 0.442.
For NCI-H441, the relative viability ([1]; first compound 0.04 µM) was 0.599, the relative viability ([1]; first compound 0.1265 µM) was 0.472 and the relative viability ([1]; first compound 0.4 µM) was 0.693. The relative viability ([1]; first compound 1.265 µM) was 0.57, the relative viability ([1]; first compound 4 µM) was 0.449 and the relative viability ([2]; first compound 0.04 µM) was 0.742. For the same cell line, the relative viability ([2]; first compound 0.1265 µM) was 0.716, the relative viability ([2]; first compound 0.4 µM) was 0.65 and the relative viability ([2]; first compound 4 µM) was 0.627. It also gave a relative viability (Tanzisertib + Navitoclax; first compound 0.08 µM) of 0.456, a relative viability (Tanzisertib + Navitoclax; first compound 0.253 µM) of 0.601 and a relative viability (Tanzisertib + Navitoclax; first compound 0.8 µM) of 0.629. It also gave a relative viability (Tanzisertib + Navitoclax; first compound 2.53 µM) of 0.773, a relative viability (Tanzisertib + Navitoclax; first compound 8 µM) of 0.584 and a relative viability (Tanzisertib + Pemetrexed; first compound 0.08 µM) of 0.27. The relative viability (Tanzisertib + Pemetrexed; first compound 0.253 µM) was 0.241, the relative viability (Tanzisertib + Pemetrexed; first compound 0.8 µM) was 0.286 and the relative viability (Tanzisertib + Pemetrexed; first compound 2.53 µM) was 0.24. For the same cell line, the relative viability (Tanzisertib + Pemetrexed; first compound 8 µM) was 0.27.
HCC-78 gave a relative viability ([1]; first compound 0.04 µM) of 0.504, a relative viability ([1]; first compound 0.1265 µM) of 0.42 and a relative viability ([1]; first compound 0.4 µM) of 0.661. For the same cell line, the relative viability ([1]; first compound 1.265 µM) was 0.69, the relative viability ([1]; first compound 4 µM) was 0.313 and the relative viability ([2]; first compound 0.04 µM) was 0.51. The relative viability ([2]; first compound 0.1265 µM) was 0.405, the relative viability ([2]; first compound 0.4 µM) was 0.733 and the relative viability ([2]; first compound 1.265 µM) was 0.415. For the same cell line, the relative viability ([2]; first compound 4 µM) was 0.633, the relative viability (Tanzisertib + Navitoclax; first compound 0.08 µM) was 0.705 and the relative viability (Tanzisertib + Navitoclax; first compound 0.253 µM) was 0.741. The relative viability (Tanzisertib + Navitoclax; first compound 0.8 µM) was 0.766, the relative viability (Tanzisertib + Navitoclax; first compound 2.53 µM) was 0.801 and the relative viability (Tanzisertib + Navitoclax; first compound 8 µM) was 0.673. It also gave a relative viability (Tanzisertib + Pemetrexed; first compound 0.08 µM) of 0.965, a relative viability (Tanzisertib + Pemetrexed; first compound 0.253 µM) of 0.901 and a relative viability (Tanzisertib + Pemetrexed; first compound 0.8 µM) of 0.915. For the same cell line, the relative viability (Tanzisertib + Pemetrexed; first compound 2.53 µM) was 0.882 and the relative viability (Tanzisertib + Pemetrexed; first compound 8 µM) was 0.934.
Work on NCI-H1915 yielded a relative viability ([1]; first compound 0.04 µM) of 0.988, a relative viability ([1]; first compound 0.1265 µM) of 1.01 and a relative viability ([1]; first compound 0.4 µM) of 1.01. The relative viability ([1]; first compound 4 µM) was 0.823, the relative viability ([2]; first compound 0.04 µM) was 0.455 and the relative viability ([2]; first compound 0.1265 µM) was 0.472. The relative viability ([2]; first compound 0.4 µM) was 0.45, the relative viability ([2]; first compound 4 µM) was 0.331 and the relative viability (Tanzisertib + Navitoclax; first compound 0.08 µM) was 0.793. The relative viability (Tanzisertib + Navitoclax; first compound 0.253 µM) was 0.786, the relative viability (Tanzisertib + Navitoclax; first compound 0.8 µM) was 0.78 and the relative viability (Tanzisertib + Navitoclax; first compound 2.53 µM) was 0.805. The relative viability (Tanzisertib + Navitoclax; first compound 8 µM) was 0.83, the relative viability (Tanzisertib + Pemetrexed; first compound 0.08 µM) was 0.565 and the relative viability (Tanzisertib + Pemetrexed; first compound 0.253 µM) was 0.451. For the same cell line, the relative viability (Tanzisertib + Pemetrexed; first compound 0.8 µM) was 0.486, the relative viability (Tanzisertib + Pemetrexed; first compound 2.53 µM) was 0.501 and the relative viability (Tanzisertib + Pemetrexed; first compound 8 µM) was 0.49.
